We go through seven compounds from patent US20100009860A1, “Device and method for analysis of interactions between biomolecules” (priority 2004, published 2010).

The test system of assay [1] is streptavidine-peptide/strep-tag II interaction. The assay is described as follows: Inhibition of streptavidine-peptide/strep-tag II interactions on MG3 peptide-pair array, fluorescence read-out. It counts as binding. To be noted: membrane incubated 30 min with agent (0.5 mM biotine) before analysis; excitation 366 nm, emission 510-530 nm. The protocol:
The reading of the signal by fluorescence and the inhibition of the streptavidine-peptide/strep-tag II-interactions using the natural product biotine and their derivatives are shown.
A) The chemical structure of the exemplary molecular fork MG3.
The peptide being at the side of Fmoc was marked with a danysl-radical and the peptide being at the Aloc-side was marked with fluoresceine. The analysis was performed by detection of the light emission at 510-530 nm after excitation with light of a wave length of 366 nm using the Raytest DIANA chemiluminescence detection system. […]
Peptide pairs were synthesized at MG3 (FIG. 17A), whereby the constant peptide block strep-tag II was synthesized at the Aloc-side and marked with a fluoresceine radical. […] Differences in fluorescence properties of the spots were obtained with different peptide pairs, an enhanced fluorescence emission was detected for interacting peptide pairs.
For the inhibition of interaction of the peptide pairs, the modified membrane was treated with high-affinated, low-affine and non-affine agents with similar chemical properties before the analysis. […] Subsequently, the analysis of the fluorescence properties of the spots was carried out.

The subject of assay [2] is streptavidine. The conditions noted are these: cited from earlier work.
The target in assay [3] is T1, FKBP12 (Mus musculus, UniProt P26883). In words: Mapping of interaction region with peptide pairs on molecular fork MG2, FKBP12 as detection molecule. In kind it is binding. To be noted: 200 nM FKBP12, overlapping 13 mer FKBP12 peptides, 2-amino acid shift, cellulose. The protocol:
A) The cellulose modified with peptide pairs by molecular forks MG2 was analyzed using 200 nM FKBP12 followed by Western Blot-analysis and immunodetection. The constant peptide block acetyl-KCPLLTAQFFEQS of FAP (Lys217-Ser229) was synthesized at the Dde-side. At the Fmoc-side, overlapping 13 mer peptides were synthesized spanning the entire FKBP12-sequence with a 2-amino acid shift. The densitometric analysis was performed using a GS-700 imaging densitometer (Bio-Rad). The ordinate represents the difference from the inverse value of the intensity of each spot and the inverse value of the average spot intensities. Large positive values correspond to a weak signal in the blot and show potential interactions within the peptide pair.
B) The cellulose modified with peptide pairs by molecular forks MG2 was analyzed using 200 nM FKBP12 followed by the Western Blot-analysis and immunodetection. […] The ordinate represents the difference from the inverse value of the intensity of each analyzed spot and the inverse value of the average spot intensities. […]
The cellulose modified with peptide pairs by molecular forks MG2 was analyzed using 200 nM FKBP12 followed by the Western Blot-analysis and immunodetection. […] The ordinate represents the difference from the inverse value of the intensity of each analyzed spot and the inverse value of the average spot intensity. […]

The target in assay [4] is streptavidine (Streptomyces avidinii, UniProt P22629). The assay is described as follows: Streptavidine/strep-tag II interaction using inhibition with biotine (Western blot, immunodetection). In kind it is binding. To be noted: 60 μg streptavidine/6 μg biotine, 1 h pre-incubation. The protocol: The cellulose, which was modified with peptide pairs corresponding to the embodiment shown in FIG. 7 by molecular forks MG1, was analyzed using the previously formed biotine/streptavidine-complex (60 μg streptavidine/6 μg biotine, 1 h pre-incubation) followed by Western Blot-analysis and immunodetection. A) Only just one side on the MG1 was attached to oligopeptides of the streptavidine-scans. The other side was modified by an acetylation reaction. B) Only just one side on the MG1 was attached to oligopeptides of the streptavidine-scan, and the strep-tag II-peptide was synthesized on the other side.
Sequence of streptavidine (Streptomyces avidinii, UniProt P22629) (P22629 25-183): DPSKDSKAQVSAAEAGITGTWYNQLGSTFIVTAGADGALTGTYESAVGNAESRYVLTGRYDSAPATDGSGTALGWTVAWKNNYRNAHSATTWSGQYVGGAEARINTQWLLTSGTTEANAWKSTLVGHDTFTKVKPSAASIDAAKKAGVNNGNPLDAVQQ
As described in example 2, peptide pairs were synthesized at the MG2, whereby the constant peptide block strep-tag II was synthesized at the Dde-side. At the Fmoc-side, overlapping 12 mer peptides were synthesized spanning the entire streptavidine-sequence with a 2-aminoacid shift. 60 μg streptavidine were pre-incubated using 6 μg biotine in the MP-buffer (30 mM tris-HCl, pH 7.6, 170 mM NaCl, 6.4 mM KCl, 0.05% Tween 20, 5% sucrose) for 60 min and it was subsequently incubated overnight at 4° C. while shaking with the cellulose. […]
A densitometric analysis of the intensities of each spot was performed by a GS-700 imaging densitometer (Bio-Rad) for quantifying the signals (FIG. 12).
Background: In western blotting, separated proteins are transferred to a membrane and probed.

In assay [5] the target is T1, FKBP12. In words: Mapping of FKBP12 binding sites by classical SPOT-technology and protein interaction analysis. To be noted: SPOT peptide scan of FAP48 / cytosolic domain of EGF-receptor. The text has this: In a first step, the FKBP12-binding sites in the FAP48 were mapped using classical SPOT-technology and protein interaction analysis.
In a first step, the FKBP12 binding sites in the cytosolic domain of the EGF-receptor (EGFR) were mapped by classical SPOT-technology and protein interaction analysis. […] Then, peptide pairs were synthesized at the MG12, as described in example 2, whereby the constant peptide block Ac-PHVCRLLGICLTS was synthesized at the Dde-side. At the Fmoc-side, overlapping 13 mer peptides were synthesized spanning the entwire FKBP12-sequence with a 2-aminoacid shift. In each case 48 individual spots resulted therefrom.

Ends that are not written are not given here.

T1 sequence (P26883 whole entry): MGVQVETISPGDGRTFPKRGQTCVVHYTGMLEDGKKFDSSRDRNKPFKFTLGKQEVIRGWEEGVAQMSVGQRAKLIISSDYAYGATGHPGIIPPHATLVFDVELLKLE

Turning to `N[C@@H]1[C@H](CCCCC(=O)O)SC[C@@H]1N` [diaminobiotine], the “fluorescence emission of the spots (inhibition of peptide pair interaction)” value in assay [1] is “very similar to the original fluorescence behaviour without a pharmaceutical agent”.

Turning to `N=C1N[C@H]2[C@H](CS[C@H]2CCCCC(=O)O)N1` [2-iminobiotine], in the assay on streptavidine [2], the Ka is 8e+06 M⁻¹.

“acetyl-PHVCRLLGICLTS (Ac-PHVCRLLGICLTS; cysteine pairing not given here)”: the “interaction region in FKBP12” value with FKBP12 [3] is on record as “Met21-Ser67”.

Regarding `O=C(O)CCCC[C@@H]1SC[C@@H]2NC(=O)N[C@@H]21` [biotine], the “bond of the streptavidine on the strep-tag II-peptide” value at streptavidine [4] is recorded as “blocked”. For the same compound, the “fluorescence emission of the spots (inhibition of peptide pair interaction)” value in assay [1] is recorded as “decreased”.

Turning to “KCPLLTAQFFEQS (Ac-KCPLLTAQFFEQS; not fully specified)”, the “interaction to FKBP12” value with FKBP12 [5] is on record as “mediate an interaction to FKBP12”.

With “PHVCRLLGICLTS (Ac-PHVCRLLGICLTS; cysteine pairing not given here)”, the “interaction to FKBP12” value with FKBP12 [5] was “particularly strong interacting”.

For “LSPLYLLQFNMGH (Ac-LSPLYLLQFNMGH; not fully specified)”, the “interaction to FKBP12” value with FKBP12 [5] is on record as “mediate an interaction to FKBP12”.
